{
  "source": "paper PMC10838953",
  "key": {"caspase-3 in 786-O cells": {"test_system": "caspase-3 in 786-O cells", "details": "72 h, compounds at 20 μM"}, "AKT (S129)": {"test_system": "AKT (S129)", "details": "786-O cells; 48 h"}, "[1]": {"test_system": "tumor slices of clear cell renal carcinoma (786-O-luc xenograft)", "details": "10 μM CX-4945, 5 μM AB668"}, "[2]": {"test_system": "AKT (S129) in 786-O cells"}, "HeLa cells": {"test_system": "HeLa cells", "details": "cited from earlier work"}, "HEK293 cell line": {"test_system": "HEK293 cell line", "details": "nontumor HEK293 cell line; cited from earlier work"}},
  "note": "“And” between values parts separate entries of the source, which are not always exact repeats. Equal values may be shown once.",
  "data": [
    {"smiles": "O=C(O)c1ccc2c(c1)nc(Nc1cccc(Cl)c1)c1ccncc12", "note": "[CX-4945, silmitasertib]", "values": [
      {"measurement": "caspase-3 activation", "setting": "caspase-3 in 786-O cells", "value": "induced caspase-3 activation"},
      {"measurement": "phosphorylation of S129AKT", "setting": "AKT (S129)", "value": "decreased, in a dose-dependent manner"},
      {"measurement": "cell viability of tumor slices", "setting": "[1]", "value": "had no effect"},
      {"measurement": "CK2 inhibition 8 h after inhibitor removal", "setting": "CK2 in 786-O cells", "value": "CK2 activity was restored to its initial level"},
      {"measurement": "pAKTS129 / AKT band quantification", "setting": "[2]", "value": "0.3 and 0.4"},
      {"measurement": "NES: Cell recruitment (pro-inflammatory response)", "setting": "786-O cells", "value": 1.563},
      {"measurement": "NES: Constitutive Signaling by NOTCH1 HD+PEST Domain Mutants", "setting": "786-O cells", "value": -1.497},
      {"measurement": "NES: Constitutive Signaling by NOTCH1 PEST Domain Mutants", "setting": "786-O cells", "value": -1.497},
      {"measurement": "NES: Export of Viral Ribonucleoproteins from Nucleus", "setting": "786-O cells", "value": 1.432},
      {"measurement": "NES: G alpha (12/13) signalling events", "setting": "786-O cells", "value": -1.412},
      {"measurement": "NES: HCMV Late Events", "setting": "786-O cells", "value": 1.511},
      {"measurement": "NES: Infection with Mycobacterium tuberculosis", "setting": "786-O cells", "value": 1.475},
      {"measurement": "NES: Interferon alpha/beta signaling", "setting": "786-O cells", "value": -1.554},
      {"measurement": "NES: Purinergic signaling in leishmaniasis infection", "setting": "786-O cells", "value": 1.563},
      {"measurement": "NES: Response of Mtb to phagocytosis", "setting": "786-O cells", "value": 1.605},
      {"measurement": "NES: Rev-mediated nuclear export of HIV RNA", "setting": "786-O cells", "value": 1.427},
      {"measurement": "NES: Signaling by NOTCH1 HD+PEST Domain Mutants in Cancer", "setting": "786-O cells", "value": -1.497},
      {"measurement": "NES: Signaling by NOTCH1 PEST Domain Mutants in Cancer", "setting": "786-O cells", "value": -1.497},
      {"measurement": "NES: Signaling by NOTCH1 in Cancer", "setting": "786-O cells", "value": -1.497},
      {"measurement": "NES: Uptake and actions of bacterial toxins", "setting": "786-O cells", "value": 1.428},
      {"measurement": "enrichmentScore: Cell recruitment (pro-inflammatory response)", "setting": "786-O cells", "value": 0.6607},
      {"measurement": "enrichmentScore: Constitutive Signaling by NOTCH1 HD+PEST Domain Mutants", "setting": "786-O cells", "value": -0.4974},
      {"measurement": "enrichmentScore: Constitutive Signaling by NOTCH1 PEST Domain Mutants", "setting": "786-O cells", "value": -0.4974},
      {"measurement": "enrichmentScore: Export of Viral Ribonucleoproteins from Nucleus", "setting": "786-O cells", "value": 0.45},
      {"measurement": "enrichmentScore: G alpha (12/13) signalling events", "setting": "786-O cells", "value": -0.5156},
      {"measurement": "enrichmentScore: HCMV Late Events", "setting": "786-O cells", "value": 0.4357},
      {"measurement": "enrichmentScore: Infection with Mycobacterium tuberculosis", "setting": "786-O cells", "value": 0.5692},
      {"measurement": "enrichmentScore: Purinergic signaling in leishmaniasis infection", "setting": "786-O cells", "value": 0.6607},
      {"measurement": "enrichmentScore: Response of Mtb to phagocytosis", "setting": "786-O cells", "value": 0.6338},
      {"measurement": "enrichmentScore: Rev-mediated nuclear export of HIV RNA", "setting": "786-O cells", "value": 0.4457},
      {"measurement": "enrichmentScore: Signaling by NOTCH1 HD+PEST Domain Mutants in Cancer", "setting": "786-O cells", "value": -0.4974},
      {"measurement": "enrichmentScore: Signaling by NOTCH1 PEST Domain Mutants in Cancer", "setting": "786-O cells", "value": -0.4974},
      {"measurement": "enrichmentScore: Signaling by NOTCH1 in Cancer", "setting": "786-O cells", "value": -0.4974},
      {"measurement": "enrichmentScore: Uptake and actions of bacterial toxins", "setting": "786-O cells", "value": 0.5866},
      {"measurement": "NES: SARS-CoV-1 activates/modulates innate immune responses", "setting": "786-O cells; R-HSA-9692916, CX4945 vs DMSO", "value": 1.374},
      {"measurement": "enrichmentScore: SARS-CoV-1 activates/modulates innate immune responses", "setting": "786-O cells; R-HSA-9692916, CX4945 vs DMSO", "value": 0.4726},
      {"measurement": "NES: SARS-CoV-1 modulates host translation machinery", "setting": "786-O cells; R-HSA-9735869, CX4945 vs DMSO", "value": -1.391},
      {"measurement": "enrichmentScore: SARS-CoV-1 modulates host translation machinery", "setting": "786-O cells; R-HSA-9735869, CX4945 vs DMSO", "value": -0.4335}
    ]},
    {"smiles": "O=C(CCC(=O)NCCc1ccc(Cl)c(Cl)c1)NCCCCn1cnc2c(Br)c(Br)c(Br)c(Br)c21", "note": "[KN2]", "values": [
      {"measurement": "cytotoxicity", "setting": "HeLa cells", "value": 6, "unit": "µM"},
      {"measurement": "cytotoxicity", "setting": "HEK293 cell line", "value": 16, "unit": "µM"}
    ]},
    {"smiles": "CCC(=O)Nc1cc(Nc2cc(NC3CC3)n3ncc(C#N)c3n2)ccc1C", "note": "[SGC-CK2-1]", "values": [
      {"measurement": "caspase-3 activation", "setting": "caspase-3 in 786-O cells", "value": "did not activate caspase-3"},
      {"measurement": "phosphorylation of S129AKT", "setting": "AKT (S129)", "value": "decreased, in a dose-dependent manner"},
      {"measurement": "CK2 inhibition 8 h after inhibitor removal", "setting": "CK2 in 786-O cells", "value": "persisted"},
      {"measurement": "pAKTS129 / AKT band quantification", "setting": "[2]", "value": 0.4}
    ]},
    {"smiles": "CN[C@@H]1C[C@H]2O[C@@](C)([C@@H]1OC)n1c3ccccc3c3c4c(c5c6ccccc6n2c5c31)C(=O)NC4", "note": "[staurosporine]", "values": [
      {"measurement": "caspase-3 activation", "setting": "caspase-3 in 786-O cells", "value": "induced caspase-3 activation"}
    ]}
  ]
}
